Experimental data published in US20040022780A1, “Serine protease and topical retinoid compositions useful for treatment of acne vulgarise and production of anti-aging effects” (priority 1997, published 2004).

Test system: Rhino mouse skin
Assay: Histology after suboptimal trypsin, all-trans retinoic acid or both
Format: in vivo
Conditions: suboptimal dose alone: 0.005% (w/v) trypsin or 0.0005% (w/v) all-trans retinoic acid
Protocol: A first set of Rhino mice of Example 1 were treated with suboptimal doses of the trypsin composition of Example 2. […] A second set of Rhino mice of Example 1 were treated with suboptimal concentrations of the all-trans retinoic acid composition of Example 2. A third set of Rhino mice of Example 1 were treated with both suboptimal doses of the trypsin composition of Example 2 and the all-trans retinoic acid composition of Example 2. In this third set of Rhino mice, the trypsin and all-trans retinoic acid treatments were each administered daily, but at different times (i.e. trypsin in the morning and all-trans retinoic acid in the afternoon). Mice were sacrificed and their skins were examined histologically with the procedure set forth in Example 3.

CC1=C(/C=C/C(C)=C/C=C/C(C)=C/C(=O)O)C(C)(C)CCC1 [all-trans retinoic acid, reference compound]
skin histology of treatment given alone vs untreated skin: marked inprovement
